Here are results for 18 molecules from patent publication US8835634B2, “Quinoxalinone derivatives as insulin secretion stimulators, methods for obtaining them and use thereof for the treatment of diabetes” (Merck Patent GmbH, priority 2008, dated 2014).

One series has as its system INS-1 cells. Description: Insulin secretion assay in INS-1 cells (glucose at 4.2 mM). In kind it is cell-based, rat. The settings on record: glucose 4.2 mM, 1 h incubation, control = glucose 4.2 mM; for Insulin secretion, % of ctrl at 10 μM of cpd: 10 μM compound; for Insulin secretion, % of ctrl at 50 μM of cpd: 50 μM compound. Here is the method: Culture of Pancreatic INS-1 Cells
INS-1 cells were cultured in complete medium, RPMI1640 containing 1 mM sodium pyruvate, 50 μM 2-mercaptoethanol, 2 mM glutamine, 10 mM HEPES, 100 IU/mL penicillin, and 100 μg/mL streptomycin (CM), supplemented with 10 mM glucose, and 10% (vol/vol) heat-inactivated fetal calf serum (FCS), as described by Asfari et al. (Endocrinology 130: 167-178, 1992).
INS-1 cells were plated and cultured in 48-well plates. After 2 days of culture, the medium was removed and cells were cultured for 24 h with a medium change to 5 mM glucose, 1% FCS. The cells were then washed with Krebs-Ringer Bicarbonate HEPES buffer (KRBH; 135 mM NaCl; 3.6 mM KCl; 5 mM NaHCO3; 0.5 mM NaH2PO4; 0.5 mM MgCl2; 1.5 mM CaCl2 and 10 mM HEPES; pH 7.4) 0.1% BSA containing 2.8 mM glucose and preincubated for 30 min at 37° C. in the same buffer. The cells were then washed twice and incubated for 1 h in KRBH 0.1% BSA containing 4.2 mM glucose and different concentrations of the tested molecule. Insulin concentration in the collected supernatants was measured with ELISA using rat insulin antibody (Insulin Rat Elit PLUS, cat. ref 10-1145-01).
Insulin secretion results are expressed in % of control (glucose 4.2 mM).
Insulin Secretion in INS-1 Cells (Glucose at 4.2 mM)

The subject of series [1] is diabetic N0STZ rat islets. Description: Insulin secretion in diabetic N0STZ rat islets. In kind it is cell-based. The settings on record: 90 min, Means±SEM. As for the experimental part: Insulin Secretion in Diabetic N0STZ Rat Islets. Materials and Methods. Islets Isolation and Treatments.
14±3 weeks non-fasted N0STZ (PORTHA et al., 1974) male rats (Charles Rivers-Domaine des Oncins, I'Arbresle, France) were anesthetised with sodium pentobarbital (Nembutal®: 45 mg/kg in 5 ml/kg administered intra peritoneally) and body temperature was maintained with a heat lamp.
Rat pancreatic islets of Langerhans were isolated from the pancreas of 8 rats by collagenase P (Boehringer, Meylan, France) digestion. Islets were purified by sedimentation in Hanks balanced salt solution [NaCl (137 mM); KCl (5.36 mM); MgSO4, 7 H2O (0.81 mM); Na2HPO4, 12 H2O (0.34 mM); KH2PO4 (0.44 mM); CaCl2, 2 H2O (1.26 mM); NaHCO3 (4.17 mM)] followed by Ficoll gradient separation. Islets were then hand-picked under stereoscopic microscope and batches of 3 islets were incubated for 90 minutes at 37° C. with continuous shaking under a humidified condition (95% O2, 5% CO2) in 1 ml of Krebs/Hepes pH 7 solution [NaCl (115 mM), NaHCO3 (24 mM), KCl (5 mM), MgCl2 (1 mM), CaCl2, 2 H2O (1 mM), 0.2% of Bovine serum albumin (Fraction V, fatty acid free, Boehringer, Mannheim), 10 mM Hepes] containing the required glucose or compound concentration. Compounds were dissolved in DMSO at 2.10-2M stock solutions. They were then diluted at the required concentration in Krebs/Hepes buffer containing the required glucose concentration.
At the end of incubation, media was collected and insulin levels were measured using ELISA (EUROBIO, Courtaboeuf, France).
Islets were hand-picked and incubated in the presence of increasing concentrations of compounds in the presence of glucose at 2.8 or 8 mM. At the end of incubation, media was collected and insulin levels were measured using ELISA method. Results are expressed as % of glucose control (2.8 or 8 mM) and represent Means±SEM.

The mark [2] stands for this setting: glucose 2.8 mM, compound 10−4 M.

`O=c1c(-c2ccccc2)nc2ccccc2n1CC(F)F` [Example 3, 1-(2,2-difluoroethyl)-3-phenyl-quinoxalin-2(1H)-one] gave a melting point of 85 to 88 °C.
In turn, `O=c1c(-c2ccc(Cl)cc2)nc2ccccc2n1CC(F)F` [Example 3-2, 3-(4-chlorophenyl)-1-(2,2-difluoroethyl)quinoxalin-2(1H)-one] came in with a melting point of 133 to 136 °C. In the series on INS-1 cells, the “Insulin secretion, % of ctrl at 10 μM of cpd” value is on record as 540 % of ctrl and the “Insulin secretion, % of ctrl at 50 μM of cpd” value is reported as 666 % of ctrl.
`O=c1c(-c2ccc(Cl)cc2)nc2ccccc2n1C1CC1` [Example 3-3, 3-(4-chlorophenyl)-1-cyclopropyl-quinoxalin-2(1H)-one] came in with a melting point of 102 to 105 °C.
With `CCn1c(=O)c(-c2ccc(F)cc2)nc2cc(F)c(F)cc21` [Example 3-9, 1-ethyl-6,7-difluoro-3-(4-fluorophenyl)quinoxalin-2(1H)-one], the melting point is 116 to 118 °C.
Still for that read-out and setting: to `CCn1c(=O)c(-c2ccc(Cl)cc2)nc2cc(F)c(F)cc21` [Example 3-10, 1-ethyl-6,7-difluoro-3-(4-chlorophenyl)quinoxalin-2(1H)-one] belongs 135 to 137 °C.
Turning to `O=c1c(-c2ccccc2)nc2ccccc2n1C1CC1` [Example 3-11, 1-cyclopropyl-3-phenylquinoxalin-2(1H)-one], the melting point lay in the range of 102 to 105 °C. Besides, in the series with INS-1 cells, the “Insulin secretion, % of ctrl at 10 μM of cpd” value is listed as 371 % of ctrl and the “Insulin secretion, % of ctrl at 50 μM of cpd” value is listed as 468 % of ctrl.
Regarding `O=c1c(-c2ccc(F)cc2)nc2ccccc2n1C1CC1` [Example 3-14, 1-cyclopropyl-3-(4-fluorophenyl)quinoxalin-2(1H)-one], the melting point was in the range of 179 to 182 °C.
Still for that read-out and setting: the value for `CCCCn1c(=O)c(-c2ccccc2)nc2ccccc21` [Example 3-16, 1-butyl-3-phenyl-quinoxalin-2(1H)-one] was 40 to 43 °C; that for `CCc1nc2cc(F)c(F)cc2n(CC)c1=O` [Example 3-24, 1,3-diethyl-6,7-difluoro-quinoxalin-2(1H)-one] was 117 to 119 °C.
With `CCCCn1c(=O)c(CC)nc2ccccc21` [Example 3-29, 1-butyl-3-ethylquinoxalin-2(1H)-one], the melting point was in the range of 48 to 51 °C.
As for `CCCc1nc2ccccc2n(C2CC2)c1=O` [Example 3-32, 1-cyclopropyl-3-propylquinoxalin-2(1H)-one], the melting point lay in the range of 72 to 75 °C.
With `CCc1nc2ccccc2n(C2CC2)c1=O` [Example 3-33, 1-cyclopropyl-3-ethylquinoxalin-2(1H)-one], the melting point is 77 to 80 °C.
The molecule `O=c1c(-c2ccc(F)cc2)nc2ccccc2n1CC(F)F` [Example 3-34, 1-(2,2-difluoroethyl)-3-(4-fluorophenyl)quinoxalin-2(1H)-one] yielded a melting point of 151 to 154 °C.
Take `CCn1c(=O)c(-c2ccc(Cl)cc2)nc2ccccc21` [Example 6, 3(4-chlorophenyl)-1-ethyl-quinoxalin-2(1H)-one]: the melting point is 138 to 140 °C. Further, in the series with INS-1 cells, the “Insulin secretion, % of ctrl at 10 μM of cpd” value was 325 % of ctrl and the “Insulin secretion, % of ctrl at 50 μM of cpd” value was 495 % of ctrl. Besides, the “Insulin secretion, % of glucose control” value in series [1] (setting [2]) is given as 94 ± 17 % of glucose control. The “Insulin secretion, % of glucose control” value in series [1] (glucose 8 mM, compound 10−4 M) is reported as 413 ± 7 % of glucose control. For the same molecule, in series [1] (glucose 8 mM, compound 10−5 M), the “Insulin secretion, % of glucose control” value is 226 ± 12 % of glucose control. In series [1] (glucose 8 mM, compound 10−6 M), the “Insulin secretion, % of glucose control” value is on record as 124 ± 8 % of glucose control. Moreover, the “Insulin secretion, % of glucose control” value in series [1] (glucose 8 mM, compound 10−7 M) is given as 126 ± 9 % of glucose control.
On to `CCn1c(=O)c(-c2ccc(F)cc2)nc2ccccc21` [Example 6-3, 1-ethyl-3-(4-fluorophenyl)quinoxalin-2(1H)-one], for which the melting point lay within 110 to 115 °C. In addition, in the series on INS-1 cells, the “Insulin secretion, % of ctrl at 10 μM of cpd” value is recorded as 316 % of ctrl and the “Insulin secretion, % of ctrl at 50 μM of cpd” value is recorded as 423 % of ctrl. Besides, the “Insulin secretion, % of glucose control” value in series [1] (setting [2]) is on record as 114 ± 17 % of glucose control. The “Insulin secretion, % of glucose control” value in series [1] (glucose 8 mM, compound 10−4 M) is given as 440 ± 8 % of glucose control. The “Insulin secretion, % of glucose control” value in series [1] (glucose 8 mM, compound 10−5 M) is 168 ± 9 % of glucose control. For the same molecule, the “Insulin secretion, % of glucose control” value in series [1] (glucose 8 mM, compound 10−6 M) was 135 ± 11 % of glucose control. For the same molecule, the “Insulin secretion, % of glucose control” value in series [1] (glucose 8 mM, compound 10−7 M) was 133 ± 8 % of glucose control.
As to `CCn1c(=O)c(-c2ccc(C)cc2)nc2ccccc21` [Example 6-4, 1-ethyl-3-(4-methylphenyl)quinoxalin-2(1H)-one], in the series on INS-1 cells, the “Insulin secretion, % of ctrl at 10 μM of cpd” value was 305 % of ctrl and the “Insulin secretion, % of ctrl at 50 μM of cpd” value is given as 391 % of ctrl.
Turning to `CCn1c(=O)c(-c2ccc(F)cc2C)nc2ccccc21` [Example 6-5, 1-ethyl-3-(4-fluoro-2-methylphenyl)quinoxalin-2(1H)-one], in the series on INS-1 cells, the “Insulin secretion, % of ctrl at 10 μM of cpd” value is reported as 287 % of ctrl and the “Insulin secretion, % of ctrl at 50 μM of cpd” value is recorded as 325 % of ctrl.
For `CCn1c(=O)c(-c2ccc(C(F)(F)F)cc2)nc2ccccc21` [Example 6-7, 1-ethyl-3-(4-trifluoromethylphenyl)quinoxalin-2(1H)-one], in that order: 221 % of ctrl and 466 % of ctrl.
